From patent publication US5192664A, “Parathyroid hypertensive factor, antibodies and uses thereof” (Pang; Peter K. T., priority 1990, dated 1993)

System: Blood Pressure in SHR
Test: Feeding of nifedipine and dietary calcium to SHR rats for 8 weeks, mean blood pressure
Type: in vivo, rat
Conditions: for Blood Pressure in SHR: nifedipine 0 mg/kg food, 8 weeks feeding
Description: Male rats of the SHR strain, obtained from Harlan Sprague-Dawley, 12 weeks old, were divided into groups of 12 or 24, and were fed prepared diets containing 0.2%, 0.4% and 0.8% elemental calcium, respectively. […] Distilled water was available ad lib. Feeding was continued for 8 weeks and the mean blood pressure of each animal was determined at the end of that time.

With `[Ca]` [Calcium] the “decrease in blood pressure” value (4 times the amount of ordinary dietary calcium, no nifedipine) was “measurable, but small”, the “Blood Pressure in SHR” value (dietary calcium 0.4%) was 164 ± 6 mm Hg and the “Blood Pressure in SHR” value (dietary calcium 0.8%) was 169 ± 6 mm Hg.
